Entries after “also recorded” stand apart in the source; their conditions may differ.
How the values were obtained:
Assay type in all cases: in vivo, mouse
Ndufs4(KO) mice [1] = test: Body weight, growth and cachexia onset
Description: Ndufs4(+/−) mice were bred to produce Ndufs4(KO) (Ndufs4(−/−)) offspring. Mice were weaned at 20-21 days of age. Ndufs4(KO) animals were housed with a minimum of one control littermate for warmth and stimulation. Mice were weighed, and health assessed, a minimum of 3 times per week, every other day (daily for IP injected mice, see herein). Where longitudinal blood point-of-care data was collected, this was performed during these health checks. Wetted chow in a dish on the bottom of each cage, and in-cage water bottles, were provided to all cages housing Ndufs4(KO) mice following the onset of disease so that the ability to find or reach food or water was not a limiting factor for survival.
Cachexia in FIG. 4H and FIG. 6E is the day of life when weight peaks prior to the progressive weight loss which occurs in untreated Ndufs4(KO) animals.

Ndufs4(KO) mice [2] = test: Rotarod assay; conditions: latency to fall up to 10 min, 6 rpm
Description: (§1) Rotarod and rotarod seizures. Rotarod assays were performed using a Med Associates Inc. (Fairfax, VT) ENV-571M single lane rotarod with a black mat installed in the floor of the lane to reduce visibility of the bottom. Assays were performed by placing animals onto an already rotating rod and timing latency to fall, with a steady rotation speed set to 6 rpm (controlled by attached laptop and Med Associates software). The maximum time of each trial was 10 min, with the trial ending at that time if mice were still on the rotarod. For each assay, three trials were performed, with a minimum of 5 min between each assay. The best of the three trials was reported for the rotarod data. As detailed in the text and figure legends, rotarod was performed each 10 days of age from P30; mice in a given age group were the reported age +/−1 day.

[3] = system: CNS lesions in Ndufs4(KO) mice; test: Brain immunological staining: brainstem and cerebellar CNS lesions; conditions: 300 mg/kg/day
Description: Brain immunological staining and microscopy. Brains were fixed for 48 hours in 10% formalin at 4° C. Following fixation, brains were moved to a cryoprotectant solution (30% sucrose, 1% DMSO, 100 μM glycine, 1×PBS, 0.45 μm filtered, pH 7.5), and stored for over 48 hours, until the fixed tissues sank to the bottom. Tissues were then placed in OCT media (Tissue-Tek OCT compound, Sakura 0004348-01), frozen in cryoblock holders on dry ice, and stored at −80° C. until sectioned for staining. Cryoblocks were cut at 50 μm thickness using a Leica CM30505 cryostat set at −40° C. Slices were moved to 1×PBS and stored at 4° C. until used for staining. Prior to staining, slices were mounted on slides and briefly dried to adhere.
Antibody staining was performed as follows: slides were first incubated in an antigen retrieval and permeabilization buffer (0.05% Triton X-100, 50 μM digitonin, 10 mM Tris-HCl, 1 mM EDTA, pH 9.0) at 60° C. overnight in a white-light LED illuminated box (to promote photobleaching of tissue autofluorescence). To reduce formaldehyde induced background fluorescence, slides were treated with sodium borohydride in ice cold PBS, added at 1 mg/mL immediately before incubation, on ice for 30 min, then moved to 10 mM glycine 1×PBS, pH 7.4, for 5 min at room temperature. Lipid background fluorescence was then blocked by incubating slides in 0.2 μm filtered Sudan Black B solution (5 mg/mL in 70% ethanol) overnight at room temperature. Slides were then rinsed twice, 5 min each, in 1×PBS. Excess fluid was wiped from the slide, and the tissue was circled using Liquid Blocker PAP pen (Fisher Scientific, NC9827128) to hold staining solutions. Slides were blocked for 15 min at room temperature in 1×PBS with 10% rabbit serum (Gibco, 16120-099) then stained overnight at 4° C. in a mixture of rabbit anti-IBA1-fluorochrome 635 conjugated (WAKO 013-26471) at 1:300, mouse anti-GFAP, Alexa555 conjugated (Cell Signaling, 3656S) at 1:300, and DAPI (Sigma, D9542) at 1 μg/mL. […]

Ndufs4(KO) mice [4] = test: Rotarod induced seizures
Description: as §1
Mice were monitored throughout each assay for seizure activity, and rotarod performance trials were ended if a seizure was observed. […]

Question: Which results are given for `FC(F)(F)c1ccc(CNc2ccc(Cc3c[nH]c4ncc(Cl)cc34)cn2)cn1` [pexidartinib, 5-[(5-chloro-1H-pyrrolo[2,3-b]pyridin-3-yl)methyl]-N-[[6-(trifluoromethyl)pyridin-3-yl]methyl]pyridin-2-amine]?
Answer: cachexia (Ndufs4(KO) mice [1]): prevented; performance on rotarod assay (Ndufs4(KO) mice [2]): rescued performance; also recorded: dose-dependent effect; gliosis (microgliosis and astrocytosis) at CNS lesion sites [3]: completely prevented; brainstem CNS lesions ([3]; immunohistochemistry): complete (as detected by immunohistochemistry) prevention; cerebellar CNS lesions ([3]; immunohistochemistry): complete (as detected by immunohistochemistry) prevention; time-to-seizure (Ndufs4(KO) mice [4]; Ndufs4(KO) mice at P30, rotarod assay): markedly reduced; incidence of rotarod induced seizures (Ndufs4(KO) mice [4]; Ndufs4(KO) mice at P30, untreated 30%): markedly reduced

Source: patent US20230321063A1, “COMPOSITIONS AND METHODS TO REDUCE NEUROINFLAMMATION” (Seattle Children's Hospital d/b/a Seattle Children's …, priority 2020, published 2023)
